In US8802597B2, “Herbicidal pyrimidines” (E I du Pont de Nemours and Company, priority 2003, dated 2014):
Where two headings read alike, the source gives them in different places.

What was measured:
Type in all cases: in vivo
[1] = tested on: barnyardgrass (Echinochloa crus-galli); experiment: Test A pre/postemergence; conditions: Echinochloa crus-galli, 240 h, read-out: Plant response rating, Barnyardgrass; for pest or weed control at 125 g/ha: 125 g ai/ha; for pest or weed control at 500 g/ha: 500 g ai/ha
Outline: (§1)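 Compared with untreated controls, treated plants were visually rated for injury on a 0 (none) to 100 (complete control) scale about ten days after spraying. Pre- and postemergence applications used one solvent/surfactant formulation; postemergence plants measured 2–10 cm.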

[2] = tested on: giant foxtail (Setaria faberi); experiment: Test A pre/postemergence; conditions: Setaria faberi, 240 h, read-out: Plant response rating, Foxtail, Giant; for pest or weed control at 125 g/ha: 125 g ai/ha; for pest or weed control at 500 g/ha: 500 g ai/ha
Outline: as §1

[3] = tested on: bermudagrass (Cynodon dactylon); experiment: Test C pre/postemergence; conditions: Cynodon dactylon; for pest or weed control at 31 g/ha: 31 g ai/ha; for pest or weed control at 62 g/ha: 62 g ai/ha; for pest or weed control at 125 g/ha: 125 g ai/ha; for pest or weed control at 250 g/ha: 250 g ai/ha
Outline: (§2)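 Applications: preemergence onto seeded soil and postemergence onto 1- to 4-leaf seedlings, compound carried in non-phytotoxic solvent plus surfactant. Kept in greenhouse 12 to 14 days. Scored visually relative to untreated controls, 0 (no effect) to 100 (complete control).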

[4] = tested on: crabgrass (Digitaria sanguinalis); experiment: Test C pre/postemergence; conditions: Digitaria sanguinalis; for pest or weed control at 31 g/ha: 31 g ai/ha; for pest or weed control at 62 g/ha: 62 g ai/ha; for pest or weed control at 125 g/ha: 125 g ai/ha; for pest or weed control at 250 g/ha: 250 g ai/ha
Outline: as §2

[5] = tested on: cocklebur (Xanthium strumarium); experiment: Test C pre/postemergence; conditions: Xanthium strumarium; for pest or weed control at 31 g/ha: 31 g ai/ha; for pest or weed control at 62 g/ha: 62 g ai/ha; for pest or weed control at 125 g/ha: 125 g ai/ha
Outline: as §2

[6] = tested on: eastern black nightshade (Solanum ptycanthum); experiment: Test C pre/postemergence; conditions: Solanum, pre-emergence, Preemergence, read-out: Plant response rating, Nightshade
Outline: as §2

[7] = tested on: lambsquarters (Chenopodium album); experiment: Test C pre/postemergence; conditions: Chenopodium album; for pest or weed control at 31 g/ha: 31 g ai/ha; for pest or weed control at 62 g/ha: 62 g ai/ha; for pest or weed control at 125 g/ha: 125 g ai/ha; for pest or weed control at 250 g/ha: 250 g ai/ha
Outline: as §2

[8] = tested on: velvetleaf (Abutilon theophrasti); experiment: Test C pre/postemergence; conditions: Abutilon theophrasti; for pest or weed control at 31 g/ha: 31 g ai/ha; for pest or weed control at 62 g/ha: 62 g ai/ha; for pest or weed control at 125 g/ha: 125 g ai/ha; for pest or weed control at 250 g/ha: 250 g ai/ha
Outline: as §2

[9] = tested on: goosegrass (Eleusine indica); experiment: Test C pre/postemergence; conditions: Eleusine indica; for pest or weed control at 31 g/ha: 31 g ai/ha; for pest or weed control at 62 g/ha: 62 g ai/ha; for pest or weed control at 125 g/ha: 125 g ai/ha; for pest or weed control at 250 g/ha: 250 g ai/ha
Outline: as §2

corn (Zea mays) = experiment: Test C pre/postemergence; conditions: Zea mays; for Corn plant response rating (crop injury, 0 = no effect, 100 = complete kill) at 31 g/ha: 31 g ai/ha; for Corn plant response rating (crop injury, 0 = no effect, 100 = complete kill) at 62 g/ha: 62 g ai/ha; for Corn plant response rating (crop injury, 0 = no effect, 100 = complete kill) at 125 g/ha: 125 g ai/ha
Outline: as §2

[10] = post-emergence, Postemergence, 0 to 100 scale (0 no effect, 100 complete control)
[11] = pre-emergence, Preemergence, 0 to 100 scale where 0 is no effect and 100 is complete control, approximately ten days
[12] = post-emergence, Postemergence, scale 0 to 100 (0 no effect, 100 complete control), read-out: Bermudagrass plant response rating
[13] = pre-emergence, Preemergence, scale 0 to 100, 0 no effect, 100 complete control, read-out: Plant response rating, Bermudagrass
[14] = pre-emergence, Preemergence, scale 0 to 100, read-out: Plant response rating, Bermudagrass
[15] = post-emergence, Postemergence, scale 0 to 100 (0 no effect, 100 complete control), read-out: Crabgrass plant response rating
[16] = pre-emergence, Preemergence, scale 0 to 100, 0 no effect, 100 complete control, read-out: Plant response rating, Crabgrass
[17] = pre-emergence, Preemergence, scale 0 to 100, read-out: Plant response rating, Crabgrass
[18] = post-emergence, Postemergence, scale 0 to 100 (0 no effect, 100 complete control), read-out: Cocklebur plant response rating
[19] = pre-emergence, Preemergence, scale 0 to 100, 0 no effect, 100 complete control, read-out: Plant response rating, Cocklebur
[20] = post-emergence, Postemergence, scale 0 to 100 (0 no effect, 100 complete control), read-out: Lambsquarters plant response rating
[21] = pre-emergence, Preemergence, scale 0 to 100, 0 no effect, 100 complete control, read-out: Plant response rating, Lambsquarters
[22] = pre-emergence, Preemergence, scale 0 to 100, read-out: Plant response rating, Lambsquarters
[23] = post-emergence, Postemergence, scale 0 to 100 (0 no effect, 100 complete control), read-out: Velvetleaf plant response rating
[24] = pre-emergence, Preemergence, scale 0 to 100, 0 no effect, 100 complete control, read-out: Plant response rating, Velvetleaf
[25] = pre-emergence, Preemergence, scale 0 to 100, read-out: Plant response rating, Velvetleaf
[26] = post-emergence, Postemergence, scale 0 to 100 (0 no effect, 100 complete control), read-out: Goosegrass plant response rating
[27] = pre-emergence, Preemergence, scale 0 to 100, 0 no effect, 100 complete control, read-out: Plant response rating, Goosegrass
[28] = pre-emergence, Preemergence, scale 0 to 100, read-out: Plant response rating, Goosegrass
[29] = post-emergence, Postemergence, scale 0 to 100 (0 no effect, 100 complete control), read-out: Corn plant response rating
[30] = pre-emergence, Preemergence, scale 0 to 100, 0 no effect, 100 complete control, read-out: Plant response rating, Corn

CCOC(=O)c1nc(-c2ccc(Cl)cc2)nc(N)c1Cl [Compound 64, ethyl 6-amino-5-chloro-2-(4-chlorophenyl)-4-pyrimidinecarboxylate]
pest or weed control at 125 g/ha [1, 10]: 25% | pest or weed control at 500 g/ha [1, 10]: 70% | pest or weed control at 125 g/ha [1, 11]: 0% | pest or weed control at 500 g/ha [1, 11]: 60% | pest or weed control at 125 g/ha [2, 10]: 70% | pest or weed control at 500 g/ha [2, 10]: 80% | pest or weed control at 125 g/ha [2, 11]: 15% | pest or weed control at 500 g/ha [2, 11]: 70% | pest or weed control at 31 g/ha ([3]; post-emergence, Postemergence, read-out: Plant response rating (scale of 0 to 100), Bermudagrass): 20% | pest or weed control at 62 g/ha [3, 12]: 60% | pest or weed control at 125 g/ha [3, 12]: 65% | pest or weed control at 250 g/ha ([3]; post-emergence, Postemergence, scale 0 to 100, read-out: Plant response rating, Bermudagrass): 70% | pest or weed control at 31 g/ha [3, 13]: 0% | pest or weed control at 62 g/ha [3, 13]: 0% | pest or weed control at 125 g/ha [3, 14]: 20% | pest or weed control at 250 g/ha [3, 14]: 20% | pest or weed control at 31 g/ha ([4]; post-emergence, Postemergence, read-out: Plant response rating (scale of 0 to 100), Crabgrass): 70% | pest or weed control at 62 g/ha [4, 15]: 80% | pest or weed control at 125 g/ha [4, 15]: 85% | pest or weed control at 250 g/ha ([4]; post-emergence, Postemergence, scale 0 to 100, read-out: Plant response rating, Crabgrass): 90% | pest or weed control at 31 g/ha [4, 16]: 0% | pest or weed control at 62 g/ha [4, 16]: 0% | pest or weed control at 125 g/ha [4, 17]: 70% | pest or weed control at 250 g/ha [4, 17]: 90% | pest or weed control at 31 g/ha ([5]; post-emergence, Postemergence, read-out: Plant response rating (scale of 0 to 100), Cocklebur): 90% | pest or weed control at 62 g/ha [5, 18]: 90% | pest or weed control at 125 g/ha [5, 18]: 100% | pest or weed control at 31 g/ha [5, 19]: 0% | pest or weed control at 62 g/ha [5, 19]: 0% | pest or weed control at 125 g/ha ([5]; pre-emergence, Preemergence, scale 0 to 100, read-out: Plant response rating, Cocklebur): 5% | pest or weed control at 250 g/ha ([5]; pre-emergence, Preemergence, 250 g ai/ha, scale 0 to 100, read-out: Plant response rating, Cocklebur): 30% | pest or weed control at 31 g/ha ([6]; 31 g ai/ha, scale 0 to 100, 0 no effect, 100 complete control): 5% | pest or weed control at 62 g/ha ([6]; 62 g ai/ha, scale 0 to 100, 0 no effect, 100 complete control): 85% | pest or weed control at 125 g/ha ([6]; 125 g ai/ha, scale 0 to 100): 85% | pest or weed control at 250 g/ha ([6]; 250 g ai/ha, scale 0 to 100): 95% | pest or weed control at 31 g/ha ([7]; post-emergence, Postemergence, read-out: Plant response rating (scale of 0 to 100), Lambsquarters): 80% | pest or weed control at 62 g/ha [7, 20]: 90% | pest or weed control at 125 g/ha [7, 20]: 90% | pest or weed control at 250 g/ha ([7]; post-emergence, Postemergence, scale 0 to 100, read-out: Plant response rating, Lambsquarters): 90% | pest or weed control at 31 g/ha [7, 21]: 70% | pest or weed control at 62 g/ha [7, 21]: 95% | pest or weed control at 125 g/ha [7, 22]: 95% | pest or weed control at 250 g/ha [7, 22]: 100% | pest or weed control at 31 g/ha ([8]; post-emergence, Postemergence, read-out: Plant response rating (scale of 0 to 100), Velvetleaf): 80% | pest or weed control at 62 g/ha [8, 23]: 85% | pest or weed control at 125 g/ha [8, 23]: 90% | pest or weed control at 250 g/ha ([8]; post-emergence, Postemergence, scale 0 to 100, read-out: Plant response rating, Velvetleaf): 95% | pest or weed control at 31 g/ha [8, 24]: 0% | pest or weed control at 62 g/ha [8, 24]: 0% | pest or weed control at 125 g/ha [8, 25]: 0% | pest or weed control at 250 g/ha [8, 25]: 0% | pest or weed control at 31 g/ha ([9]; post-emergence, Postemergence, read-out: Plant response rating (scale of 0 to 100), Goosegrass): 35% | pest or weed control at 62 g/ha [9, 26]: 35% | pest or weed control at 125 g/ha [9, 26]: 60% | pest or weed control at 250 g/ha ([9]; post-emergence, Postemergence, scale 0 to 100, read-out: Plant response rating, Goosegrass): 70% | pest or weed control at 31 g/ha [9, 27]: 0% | pest or weed control at 62 g/ha [9, 27]: 0% | pest or weed control at 125 g/ha [9, 28]: 0% | pest or weed control at 250 g/ha [9, 28]: 75% | Corn plant response rating (crop injury, 0 = no effect, 100 = complete kill) at 31 g/ha (corn (Zea mays); post-emergence, Postemergence, read-out: Plant response rating (scale of 0 to 100), Corn): 20% | Corn plant response rating (crop injury, 0 = no effect, 100 = complete kill) at 62 g/ha (corn (Zea mays); [29]): 50% | Corn plant response rating (crop injury, 0 = no effect, 100 = complete kill) at 125 g/ha (corn (Zea mays); [29]): 50% | Corn plant response rating (crop injury, 0 = no effect, 100 = complete kill) at 31 g/ha (corn (Zea mays); [30]): 0% | Corn plant response rating (crop injury, 0 = no effect, 100 = complete kill) at 62 g/ha (corn (Zea mays); [30]): 0% | Corn plant response rating (crop injury, 0 = no effect, 100 = complete kill) at 125 g/ha (corn (Zea mays); pre-emergence, Preemergence, scale 0 to 100, read-out: Plant response rating, Corn): 20% | Corn plant response rating (crop injury, 0 = no effect, 100 = complete kill) at 250 g/ha (corn (Zea mays); pre-emergence, Preemergence, 250 g ai/ha, scale 0 to 100): 30%
